Measured values: PubChem BioAssay AID179 (DTP/NCI, 2004)
Calls of active or inactive are those of the source.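 How the source made its calls: active means compounds giving half or more protection of infected cells from virus-caused growth loss, again on retest; inactive means the rest.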

Test system: CEM cells HIV-1 protection, formazan growth assay
Experiment: NCI AIDS Antiviral Assay
Settings: for IC50: measured here: growth of uninfected CEM cells
In short: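 Protection of CEM cells against HIV-1 was scored from cell growth (soluble formazan) across five concentrations, with parallel uninfected cells. Lack of protection may reflect toxicity.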

With `O=C(Nc1ccc(/C=C/c2ccc(NC(=O)c3cc(S(=O)(=O)O)ccc3O)cc2S(=O)(=O)O)c(S(=O)(=O)O)c1)c1cc(S(=O)(=O)O)ccc1O` the EC50 was 93.3 µM and the IC50 was > 200 µM.
For `C1=NCCN=Cc2ccccc2NCCNc2ccccc21`, the EC50 was > 200 µM and the IC50 was 91.2 µM.
In the case of `O=C(N/N=C(/c1nc2ccc([N+](=O)[O-])cc2[nH]c1=O)C(O)c1ccc([N+](=O)[O-])cc1)c1ccncc1` (stereo not given), the EC50 is reported as > 138 µM and the IC50 is reported as 129 µM.
`O=C(CCCCCCCCCCc1ccccc1)C1=C(O)C(O)CCC1=O` (stereo not given) was tested, and the outcome was “inactive”.
`NC(=O)COc1c(Br)cc(Br)cc1Br` was tested, and the EC50 was > 34.7 µM and the IC50 was > 34.7 µM.
With `CCOc1ccc2nc3cc(N=Nc4ccc5c(N)c6cc(OCC)ccc6nc5c4)ccc3c(N)c2c1` the EC50 was > 100 µM and the IC50 was 20.4 µM.
For `Cc1cn(Cc2ccccc2CCO)c(=S)[nH]c1=O`, the EC50 was > 912 µM and the IC50 was > 912 µM.
With `CC(=O)O[C@H]1CC[C@@]2(C)C(CC[C@@H]3C2C(Br)C(=O)[C@]2(C)C4C(CC32)OC2(OCC(C)CC2Br)C4C)C1` (stereo not given in full) the outcome was “inactive”.
In the case of `CC(=Nc1ccccc1C(=O)O)c1c(O)ccc2c(C)cc(=O)oc12`, the EC50 is reported as > 107 µM and the IC50 is reported as > 107 µM.
With `O=C(NC(=O)c1ccccc1[N+](=O)[O-])Nc1ccc(Oc2ncc(Cl)cn2)c(C(F)(F)F)c1` the outcome was “inactive”.
For `COc1ccccc1/C=C1\SC(=S)NC1=O`, the EC50 was > 200 µM and the IC50 was 107 µM.
With `O=C1OCOC1C1OCOC1=O` (stereo not given) the EC50 was > 200 µM and the IC50 was 19.1 µM.
In the case of `Oc1cccc(C2SCc3nc4ccccc4n32)c1` (stereo not given), the EC50 is reported as > 126 µM and the IC50 is reported as 46.8 µM.
In the case of `N#Cc1n[nH]n(C2CCCCC2)c1=O`, the EC50 is reported as > 200 µM and the IC50 is reported as > 200 µM.
In the case of `Cc1cc(NCCCCCCNc2cc(C)nc3ccc(Cl)cc23)c2cc(Cl)ccc2n1`, the EC50 is reported as > 6.92 µM and the IC50 is reported as > 6.92 µM.
For `CCOC(=O)/C=C(/C)Nc1nc2c(c(C(=O)OC)c1C#N)CCCC2`, the EC50 was > 200 µM and the IC50 was > 200 µM.
For `Nc1c2ccccc2nc2ccc3c(=O)cc(-c4ccccc4)oc3c12`, the EC50 was > 20 µM and the IC50 was 0.912 µM.
For `CCc1ccc2oc(-c3cc(O)c(-c4nc5cc(CC)ccc5o4)cc3O)nc2c1`, the EC50 was > 200 µM and the IC50 was > 200 µM.
With `C#CC(O)/C=C/C(O)CCCC(O)CC#CC(O)C#CC(O)CCCC(O)/C=C/CCCCCC(=O)CCCCCCCCCCCCCC(O)C(O)C#CC(=O)O` (stereo not given) the EC50 was > 100 µM and the IC50 was 58.9 µM.
`COc1c[c]([Hg][O]C(C)=O)c(OC)c(NC(=O)CC(C)=O)[c]1[Hg][O]C(C)=O` was tested, and the EC50 was > 0.724 µM and the IC50 was > 0.724 µM.
In the case of `COc1ccc(-c2csc3c2[N+]2(C)C=CC=C2C3N2CCCC2)cc1` (stereo not given), the EC50 is reported as > 200 µM and the IC50 is reported as 8.51 µM.
With `CCOC(=O)C(Cc1c(-c2[nH]c3ccccc3c2CC(NC(=O)CNC(C)=O)C(=O)OCC)[nH]c2ccccc12)NC(=O)CNC(C)=O` (stereo not given) the EC50 was > 100 µM and the IC50 was 21.9 µM.
For `CCOC(=O)/C(=C\c1cccc(Br)c1)C(C)=O`, the EC50 was > 229 µM and the IC50 was 47.9 µM.
For `O=C(NO)C(=O)Nc1ccc(Cl)cc1[N+](=O)[O-]`, the EC50 was > 100 µM and the IC50 was > 100 µM.
`Cc1c2ccccc2c(C)c2c3c(ccc12)C(=O)C=CC3=O` was tested, and the outcome was “inactive”.
With `CC1=C/C(=C(\c2ccc(N(C)C)cc2)c2ccc([N+](C)(C)C)cc2)C=CC1=[N+](C)C` the outcome was “inactive”.
For `O=C(CCCCCCCCC(=O)NCC1(c2ccccc2)CCN(Cc2ccccc2)CC1)NCC1(c2ccccc2)CCN(Cc2ccccc2)CC1`, the EC50 was > 200 µM and the IC50 was 102 µM.
In the case of `Cc1cc(C)nc(NS(=O)(=O)c2ccc(NC(=O)c3ccc(Cl)c4c(Nc5ccc(S(=O)(=O)Nc6cc(C)on6)cc5)c5ccccc5nc34)cc2)n1`, the EC50 is reported as > 46.8 µM and the IC50 is reported as > 46.8 µM.
In the case of `O=C(N/N=C\c1ccccc1)c1ccccc1Nc1ccccc1C(=O)N/N=C/c1ccccc1`, the EC50 is reported as 26.9 µM and the IC50 is reported as > 200 µM.
With `CO/C(N)=C(\C#N)N=Cc1cccs1` the EC50 was > 200 µM and the IC50 was 117 µM.
In the case of `c1ccc2nn(C3CCCCO3)nc2c1` (stereo not given), the EC50 is reported as > 200 µM and the IC50 is reported as > 200 µM.
In the case of `O=C1C=C2C(=NC34CCCCC3C(c3ccccc3)C3=C(c5ccccc5CC3)N24)c2ccccc21` (stereo not given), the EC50 is reported as 186 µM and the IC50 is reported as > 200 µM.
With `CCOC(=O)C[P+](c1ccc(Cl)cc1)(c1ccc(Cl)cc1)c1ccc(Cl)cc1` the EC50 was > 200 µM and the IC50 was 18.6 µM.
For `O=C(NC(=Nc1ccccc1)SCSC(=Nc1ccccc1)NC(=O)c1ccco1)c1ccco1`, the EC50 was > 14.5 µM and the IC50 was > 14.5 µM.
In the case of `COc1cc2c(c(OC)c1OC)-c1ccc(=O)c(OC)cc1C(NC(C)=O)CC2` (stereo not given), the outcome is reported as “inactive”.
`CN(C)c1ccc(/C=C(\NC(=O)c2ccccc2)C(=O)NC(CC(=O)O)C(=O)O)cc1` (stereo not given) was tested, and the outcome was “inactive”.
In the case of `O=C1C(CN2CCCCC2)CCCC1CN1CCCCC1` (stereo not given), the EC50 is reported as > 550 µM, the outcome is reported as “inactive” and the IC50 is reported as 6.17 µM.
`O=c1[nH]nc(-c2ccccc2)n1-n1cccc1` was tested, and the EC50 was > 200 µM and the IC50 was 97.7 µM.
`COC(=O)/C=C1\C(CO[Si](C)(C)C(C)(C)C)OC(n2cc(C)c(=O)n(C)c2=O)C1O[Si](C)(C)C(C)(C)C` (stereo not given) was tested, and the EC50 was > 200 µM and the IC50 was 20.9 µM.
With `CC(C)OC(=O)C1Cc2c([nH]c3ccccc23)C(c2ccccc2)N1` (stereo not given) the outcome was “inactive”.
For `CC1(C)OC(=O)C(C#N)=C1/C=C1\OC(=O)c2ccccc21`, the EC50 was > 178 µM and the IC50 was 52.5 µM.
For `CCCCC1C(=O)N2[C@H](OC[C@@H]2C(C)C)O[C@@H]1C` (stereo not given in full), the EC50 was > 977 µM and the IC50 was 501 µM.
In the case of `CCCN1CN(C(C(=O)N[C@@H]2C(=O)N3C(C(=O)O)=C(C)CSC23)c2ccc(O)cc2)CSC1=S` (stereo not given in full), the EC50 is reported as > 347 µM and the IC50 is reported as 195 µM.
In the case of `CCC1=C(C)/C(=C/c2[nH]c(C(Br)Br)c(CC)c2C)N=C1C(Br)Br`, the outcome is reported as “inactive”.
For `CC1(C)CC(=O)C(CC2C(=O)CCCC2=O)C(=O)C1`, the EC50 was > 955 µM and the IC50 was 891 µM.
In the case of `N#Cc1cn(C2OC(CO)C(O)C2O)c2ncnc(N)c12` (stereo not given), the EC50 is reported as > 0.2 µM and the IC50 is reported as 0.00151 µM.
In the case of `c1ccc2c(c1)n1nnnc1c1nnnn21`, the EC50 is reported as > 33.9 µM and the IC50 is reported as > 33.9 µM.
With `c1ccc(-c2nc3ccccc3nc2SCc2cccnc2)cc1` the EC50 was > 7.94 µM and the IC50 was > 7.94 µM.
With `Cc1nnc(N)nc1C/C=C/C(C)Sc1ccc(Cl)cc1` (stereo not given) the EC50 was > 200 µM and the IC50 was 6.61 µM.
With `CC(/C=C/NNC1=NC(c2ccccc2)C(c2ccccc2)=NN1)Sc1ccccc1N` (stereo not given) the EC50 was > 81.3 µM and the IC50 was 1.45 µM.
`Cc1cc2oc3ccccc3c(=O)c2c(C)c1Cl` was tested, and the EC50 was > 28.2 µM and the IC50 was > 28.2 µM.
With `Clc1ccc2nc3c(c(-c4ccccc4)nn3-c3ccccc3)c(-c3ccccc3)c2c1` the EC50 was > 100 µM and the IC50 was > 100 µM.
In the case of `COC(=O)c1ccccc1C1CN=NC12Cc1ccc3c(c1C2=O)CCC3` (stereo not given), the EC50 is reported as > 200 µM.
In the case of `c1ccc(N2N=NC3CCCC32)cc1` (stereo not given), the EC50 is reported as > 200 µM and the IC50 is reported as 95.5 µM.
For `CCOC(=O)C(C)(C)C(OP(OCC)OCC)=C(C)C`, the EC50 was > 589 µM and the IC50 was > 589 µM.
`O=C1C(c2ccc3ccccc3n2)=C(O)c2ccccc21` was tested, and the outcome was “inactive”.
`Cc1ccc(S(=O)(=O)OC2C3OC(C)(C)OC3OC2C2CSC(=S=O)S2)cc1` (stereo not given) was tested, and the EC50 was > 67.6 µM and the IC50 was > 67.6 µM.
`N#Cc1c(N)c(-c2ccc(Cl)cc2)c(F)c2ccccc12` was tested, and the EC50 was 178 µM and the IC50 was > 200 µM.
With `N#Cc1c(=O)n(-c2ccccc2)c(O)c2c(N)n[nH]c12` the EC50 was > 200 µM and the IC50 was 89.1 µM.
In the case of `CCOC(=O)/C=C/C1OC(C)(C)OC1/C=C/C(=O)OCC` (stereo not given), the EC50 is reported as > 200 µM and the IC50 is reported as 27.5 µM.
In the case of `Cc1cn(C2CC(O)C(CO)O2)c(=O)n2nnnc12` (stereo not given), the outcome is reported as “inactive”.
In the case of `OC(Cc1ccc2ccccc2n1)(C(F)(F)Cl)C(F)(F)Cl`, the EC50 is reported as > 200 µM and the IC50 is reported as 81.3 µM.
With `COc1ccc(CN2CCCN(Cc3ccc(OC)cc3)C2c2ccccc2O)cc1` the EC50 was > 200 µM and the IC50 was 50.1 µM.
